Holding throughout (format): cell-based, human
One assay concerns AT1R. Briefly: BRET recording of AT1R removal from the PM (AT1R-RlucII / rGFP-CAAX). The conditions noted are these: for AngII-promoted BRET, AT1R removal from the PM: Comp 21 50 μM, individual experiments. Here is the method: HEK293SL cells were seeded at a density of 7.5 × 10^5 cells per 100-mm dish and 24 h later, transiently transfected as such. For receptor internalization experiments, cells were transfected with 0.12 μg AT1R-RlucII, B2R-RlucII, or β2AR-RlucII and 0.48 μg of either rGFP-CAAX (to assess removal from the PM) or rGFP-FYVE (to assess accumulation in the endosomes). For β-arrestin recruitment assays, cells were transfected with 0.48 μg of receptor-YFP along with 0.12 μg of β-arrestin-RlucII. For β-arrestin/AP-2 binding experiments, cells were transfected with 1 μg Flag-AT1R, 1 μg β2-Adaptin-YFP, and 0.12 μg β-arrestin2-RlucII. For G protein activation, cells were transfected with 3 μg of sp-Flag-AT1R along with either 4.5 μg of the Gαq-polycistronic BRET sensor or 0.24 μg of the Gαi3-RlucII and 0.6 μg of GFP10-Gγ2 and Gβ1 sensors or 0.12 μg PKN-RBD-RlucII and 0.48 μg of rGFP-CAAX. For PKC activation, cells were transfected with 3 μg of sp-Flag-AT1R and 0.18 μg of the PKC sensor. For GTPase activation experiments, cells were transfected with 1 μg Flag-AT1R, 0.48 μg of rGFP-CAAX, and either 0.12 μg of GGA3-PBD-RlucII, PAK-CRIB-RlucII or Raf-RBD-RlucII. For biosensor validation experiments, cells were additionally transfected with 500 ng Flag-K-Ras-WT, Flag-K-Ras-G12V, Flag-K-Ras-SOS-CAAX, HA-ARF6-WT, HA-ARF6-T27N, Myc-Rac1-WT, Myc-Rac1-Q61L or Myc-Rac1-T17N. For PI3K/Akt activation experiments, cells were transfected with 0.48 μg of rGFP-CAAX and 0.12 μg of Akt (PH)-RlucII. After 18 h of transfection, the media was replaced and cells were divided for subsequent experiments. Cells were detached and seeded onto poly-L-ornithine-coated 96-well flat white bottom plates (BrandTech Scientific) at a density of 2.5 × 10^4 cells per well in media. The next day, cells were washed once with Tyrode’s buffer (140 mM NaCl, 2.7 mM KCl, 1 mM CaCl2, 12 mM NaHCO3, 5.6 mM D-glucose, 0.5 mM MgCl2, 0.37 mM NaH2PO4, 25 mM HEPES, pH 7.4) and left in Tyrode’s buffer. For kinetics of β-arrestin recruitment or β-arrestin binding to receptor and AP-2 experiments, cells were serum starved for 30 min, pretreated with 21 (50 µM) or Barbadin (100 µM) for 30 min, stimulated with 100 nM AngII or 1 µM BK and BRET signals were monitored at indicated times using a Victor X Light plate reader (PerkinElmer). Coelenterazine H (final concentration of 5 µM) was added 3–5 min prior to BRET measurements. Filter set was 460/80 nm and 535/30 nm for detecting the RlucII Renilla luciferase (donor) and YFP (acceptor) light emissions, respectively. The BRET ratio was determined by calculating the ratio of the light emitted by YFP over the light emitted by the RlucII. For G protein activation, cells were serum starved, pretreated with compounds for 30 min, stimulated with 100 nM AngII for 2 min (Gαq, Gαi3, and Rho sensors) or 5 min (PKC sensor). For the kinetics of GTPase and PI3K/Akt activation, cells were serum starved, pretreated with 21 (50 µM) or Wortmannin (200 nM) for 30 min, stimulated with ligand (100 nM AngII or 100 ng/ml EGF) and BRET signals were monitored at indicated times. […] BRET signals were monitored using a Synergy2 (BioTek) microplate reader and coelenterazine 400a (final concentrations of 5 µM) added 3–5 min prior to BRET measurements. […] The BRET ratio was determined by calculating the ratio of the light emitted by rGFP/GFP10 over the light emitted by the RlucII.

For another assay, the system named is B2R. Briefly: Confocal microscopy of YFP-tagged B2R internalization. The conditions noted are these: 50 μM; BK. The protocol:
(§1) One day before transfection, cells were seeded in 35-mm glass-bottom dishes (MatTek Corporation) at a density of 1 × 10^5 cells per dish. For the recordings of receptor internalization, HEK293 SL cells were transfected with 2 μg of AT1R-YFP. For the recordings of β-arrestin-2 recruitment to the receptor, HEK293SL cells were transfected with 50 ng of β-arrestin2-YFP and 250 ng of Flag-AT1R or HA-B2R. Forty-eight hours post-transfection, cells were serum starved, preincubated with DMSO (0.1% final concentration) or Rasarfin (50 μM) for 30 min at 37 °C. AT1R-expressing cells were stimulated with angiotensinII (AngII; 100 nM) and B2R-expressing cells were stimulated with bradykinin (BK; 1 μM) for 30 min (receptor-YFP) or 15 min (β-arrestin2-YFP). Cells were imaged with Zeiss LSM-510 and/or LSM-710 laser scanning confocal microscope. To detect YFP, […] and BP 505–550 nm emission filter. Images (2048 × 2048) were collected using a 63x oil immersion lens.

The next assay relates to β-arrestin2. Briefly: Confocal microscopy of β-arrestin2-YFP trafficking with AT1R. The conditions noted are these: 50 μM; AngII. The protocol: as §1
Assay [1] deals with β-arrestin1 recruitment to AT1R. Briefly: BRET recruitment of β-arrestin1 to AT1R. The conditions noted are these: for AngII-promoted BRET, β-arrestin1 (Barr1) recruitment to AT1R: Comp 21 50 μM, individual experiments. The protocol: (§2) HEK293SL cells were seeded at a density of 7.5 × 10^5 cells per 100-mm dish and 24 h later, transiently transfected as such. For receptor internalization experiments, cells were transfected with 0.12 μg AT1R-RlucII, B2R-RlucII, or β2AR-RlucII and 0.48 μg of either rGFP-CAAX (to assess removal from the PM) or rGFP-FYVE (to assess accumulation in the endosomes). For β-arrestin recruitment assays, cells were transfected with 0.48 μg of receptor-YFP along with 0.12 μg of β-arrestin-RlucII. For β-arrestin/AP-2 binding experiments, cells were transfected with 1 μg Flag-AT1R, 1 μg β2-Adaptin-YFP, and 0.12 μg β-arrestin2-RlucII. For G protein activation, cells were transfected with 3 μg of sp-Flag-AT1R along with either 4.5 μg of the Gαq-polycistronic BRET sensor or 0.24 μg of the Gαi3-RlucII and 0.6 μg of GFP10-Gγ2 and Gβ1 sensors or 0.12 μg PKN-RBD-RlucII and 0.48 μg of rGFP-CAAX. For PKC activation, cells were transfected with 3 μg of sp-Flag-AT1R and 0.18 μg of the PKC sensor. For GTPase activation experiments, cells were transfected with 1 μg Flag-AT1R, 0.48 μg of rGFP-CAAX, and either 0.12 μg of GGA3-PBD-RlucII, PAK-CRIB-RlucII or Raf-RBD-RlucII. For biosensor validation experiments, cells were additionally transfected with 500 ng Flag-K-Ras-WT, Flag-K-Ras-G12V, Flag-K-Ras-SOS-CAAX, HA-ARF6-WT, HA-ARF6-T27N, Myc-Rac1-WT, Myc-Rac1-Q61L or Myc-Rac1-T17N. For PI3K/Akt activation experiments, cells were transfected with 0.48 μg of rGFP-CAAX and 0.12 μg of Akt (PH)-RlucII. After 18 h of transfection, the media was replaced and cells were divided for subsequent experiments. Cells were detached and seeded onto poly-L-ornithine-coated 96-well flat white bottom plates (BrandTech Scientific) at a density of 2.5 × 10^4 cells per well in media. The next day, cells were washed once with Tyrode’s buffer (140 mM NaCl, 2.7 mM KCl, 1 mM CaCl2, 12 mM NaHCO3, 5.6 mM D-glucose, 0.5 mM MgCl2, 0.37 mM NaH2PO4, 25 mM HEPES, pH 7.4) and left in Tyrode’s buffer. For kinetics of β-arrestin recruitment or β-arrestin binding to receptor and AP-2 experiments, cells were serum starved for 30 min, pretreated with 21 (50 µM) or Barbadin (100 µM) for 30 min, stimulated with 100 nM AngII or 1 µM BK and BRET signals were monitored at indicated times using a Victor X Light plate reader (PerkinElmer). Coelenterazine H (final concentration of 5 µM) was added 3–5 min prior to BRET measurements. Filter set was 460/80 nm and 535/30 nm for detecting the RlucII Renilla luciferase (donor) and YFP (acceptor) light emissions, respectively. The BRET ratio was determined by calculating the ratio of the light emitted by YFP over the light emitted by the RlucII. For G protein activation, cells were serum starved, pretreated with compounds for 30 min, stimulated with 100 nM AngII for 2 min (Gαq, Gαi3, and Rho sensors) or 5 min (PKC sensor). For the kinetics of GTPase and PI3K/Akt activation, cells were serum starved, pretreated with 21 (50 µM) or Wortmannin (200 nM) for 30 min, stimulated with ligand (100 nM AngII or 100 ng/ml EGF) and BRET signals were monitored at indicated times. For concentration-response curves, cells were serum-starved, pretreated with various concentrations of compounds for 30 min and stimulated with ligand (100 nM AngII, 1 µM BK, 10 µM Isoproterenol (Iso) or 100 ng/ml EGF) in Tyrode’s buffer for 30 min for receptor internalization, 10 min for ARF6, 2 min for Rac and Rho activation and 5 min for Ras activation and PI3K/Akt activation. BRET signals were monitored using a Synergy2 (BioTek) microplate reader and coelenterazine 400a (final concentrations of 5 µM) added 3–5 min prior to BRET measurements. Filter set was 410/80 nm and 515/30 nm for detecting the RlucII Renilla luciferase (donor) and rGFP/GFP10 (acceptor) light emissions, respectively. The BRET ratio was determined by calculating the ratio of the light emitted by rGFP/GFP10 over the light emitted by the RlucII.

The next assay has as its system Rho. Briefly: Rho BRET sensor (PKN-RBD-RlucII / rGFP-CAAX; Gα12/13), AT1R-mediated. Here is the method: as §2

1 compound from PMC8333425, “Discovery of a dual Ras and ARF6 inhibitor from a GPCR endocytosis screen” (Nature Communications, 2021) can be followed below.

“And” between values parts separate entries of the source, which are not always exact repeats. Equal entries are not always repeated.

In the case of `CC(C)C(=O)N1CCN(c2ccc(NC(=O)c3cc4ccccc4o3)cc2Cl)CC1` [Compound 21], in the assay on AT1R (50 μM), the “AngII-bound AT1R removal from the PM” value was “slowed down and decreased the extent of AngII-bound AT1R removal from the PM”. Besides, the “AngII-promoted BRET, AT1R removal from the PM” value with AT1R (time 0 min) is 0; with AT1R (time 5 min), -0.084 and -0.3663 and -0.1717 and -0.07933; with AT1R (time 15 min), -0.132 and -0.4823 and -0.452 and -0.243; in the assay on AT1R (time 30 min), -0.166 and -0.515 and -0.398 and -0.3753. Besides, in the assay with B2R, the “B2R localization by microscopy” value is “remained trapped at the PM”. The “β-arrestin trafficking with AT1R into endosomes (microscopy)” value in the assay with β-arrestin2 was “prevented β-arrestins’ trafficking with receptors into endosomes”. Also, in assay [1] (50 μM), the “β-arrestin1 recruitment to AT1R at the PM” value is given as “did not preclude”. Further, the “AngII-promoted BRET, β-arrestin1 (Barr1) recruitment to AT1R” value was 0 in assay [1] (time 0 min); 0.07621 and 0.08371 and 0.04185 in assay [1] (time 5 min); 0.1164 and 0.1114 and 0.05569 in assay [1] (time 10 min); 0.1198 and 0.1209 and 0.06044 in assay [1] (time 15 min); 0.1393 and 0.143 and 0.07152 in assay [1] (time 30 min); 0.1361 and 0.1426 and 0.1043 in assay [1] (time 60 min). Besides, in the assay on Rho (50 μM), the “Gα12/13 engagement by AT1R (BRET sensor)” value is “lack of inhibitory effects”. In addition, the “Rho MEAN (Fig.4d)” value in the assay on Rho (Log [Comp 21] (M) -4) came out at 111.903; with Rho (Log [Comp21] (M) -4.3) it was 104.855; in the assay on Rho (Log [Comp21] (M) -5) it was 98.5192; in the assay on Rho (Log [Comp21] (M) -5.3), 89.4095; with Rho (Log [Comp 21] (M) -6), 96.851; with Rho (Log [Comp21] (M) -6.3), 103.786. Also, the “Rho MEAN (Fig.4d)” value in the assay with Rho (Log [Comp 21] (M) -7) was 100.394. In the assay with Rho (listed as Comp 21), the “Rho BRET sensor signal (S_Fig.4b), single experiments” value was 0.2652 and 0.266 and 0.2953. The “AT1R-mediated activation of a Rho BRET sensor” value in the assay with Rho (up to 100 µM of 21) is given as “did not inhibit”.
